Experimental data from ChEMBL document CHEMBL1201862, “PubChem BioAssay data set” (2004).
Values belong to the compound of their own block, whether it stands above or below them. Calls of active or inactive are those of the source. Rule as the data show it, for most assays here: actives have a measured EC50 and inactives only a lower limit.

Experiments:
[1] = biological target: T1, Heat shock factor protein 1 (Mus musculus, UniProt P38532); assay: decrease of HSF1-responsive luciferase luminescence – cell-based, NIH3T3, dose retest, confirmation (AID 2382); assay type: functional;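 also: NIH3T3 fibroblasts with HSF1-driven luciferase reporter stressed by proteasome inhibitor MG132; luminescence from HSF1-driven luciferase expression after 8 hours of MG132 stress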
T1 sequence (P38532 whole entry): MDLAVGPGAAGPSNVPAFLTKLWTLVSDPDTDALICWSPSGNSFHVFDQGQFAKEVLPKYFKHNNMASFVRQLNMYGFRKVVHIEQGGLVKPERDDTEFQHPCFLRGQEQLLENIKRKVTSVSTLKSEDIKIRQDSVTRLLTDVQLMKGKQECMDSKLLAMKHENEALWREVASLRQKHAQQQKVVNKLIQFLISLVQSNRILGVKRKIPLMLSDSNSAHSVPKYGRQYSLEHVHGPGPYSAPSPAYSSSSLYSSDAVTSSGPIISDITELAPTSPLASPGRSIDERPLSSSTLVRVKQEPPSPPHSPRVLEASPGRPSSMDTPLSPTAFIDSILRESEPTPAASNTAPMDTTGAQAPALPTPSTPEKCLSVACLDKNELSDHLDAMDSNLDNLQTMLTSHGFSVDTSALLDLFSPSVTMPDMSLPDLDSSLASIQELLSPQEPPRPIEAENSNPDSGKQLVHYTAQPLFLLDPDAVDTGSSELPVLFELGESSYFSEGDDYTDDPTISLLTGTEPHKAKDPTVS

[2] = biological target: T2, Corticotropin-releasing factor receptor 2/Corticotropin-releasing factor-binding protein (Homo sapiens, UniProt P24387+Q13324); assay: Dose Response confirmation of uHTS hits for small molecule antagonists of the CRF-binding protein and CRF-R2 receptor complex.; assay type: functional; settings: read-out: IC50_Mean
T2 sequence (Q13324 whole entry): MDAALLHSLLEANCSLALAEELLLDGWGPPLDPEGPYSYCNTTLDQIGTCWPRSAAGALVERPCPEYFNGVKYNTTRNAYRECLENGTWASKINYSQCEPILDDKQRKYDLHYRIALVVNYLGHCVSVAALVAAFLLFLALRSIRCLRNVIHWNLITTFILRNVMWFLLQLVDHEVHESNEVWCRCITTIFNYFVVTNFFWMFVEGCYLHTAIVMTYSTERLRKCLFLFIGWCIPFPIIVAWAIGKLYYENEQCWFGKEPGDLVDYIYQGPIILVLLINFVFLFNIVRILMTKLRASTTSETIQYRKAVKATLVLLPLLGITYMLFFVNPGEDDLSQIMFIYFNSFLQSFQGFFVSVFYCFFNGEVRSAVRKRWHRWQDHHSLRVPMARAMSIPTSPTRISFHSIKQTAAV
T2 sequence (P24387 whole entry): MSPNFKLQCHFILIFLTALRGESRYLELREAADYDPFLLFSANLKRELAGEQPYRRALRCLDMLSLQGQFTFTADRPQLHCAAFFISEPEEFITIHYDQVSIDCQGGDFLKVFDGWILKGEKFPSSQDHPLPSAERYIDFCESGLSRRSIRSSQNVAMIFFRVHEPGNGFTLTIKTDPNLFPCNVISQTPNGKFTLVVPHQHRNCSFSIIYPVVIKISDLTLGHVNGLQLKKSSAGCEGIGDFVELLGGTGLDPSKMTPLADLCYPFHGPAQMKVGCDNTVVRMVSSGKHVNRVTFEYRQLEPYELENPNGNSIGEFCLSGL

[3] = biological target: T2, Corticotropin-releasing factor receptor 2/Corticotropin-releasing factor-binding protein; assay: activators of CRF receptor 2 with binding protein – uHTS hits, confirmation (AID 602473); assay type: functional; settings: read-out: EC50_Mean
[4] = biological target: T1, Heat shock factor protein 1; assay: enhancement of HSF1-driven luciferase signal – cell-based, NIH3T3, luminescence, dose retest, confirmation (AID 435004); assay type: functional;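 also: stress induced by proteasome inhibitor MG132 added 30 min after compound; luciferase reporter driven by HSF1 response element in NIH3T3 cells; actives raise luminescence as potentiators of the MG132 stress response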
Cytochrome P450 2D6 = Cytochrome P450 2D6 (Homo sapiens, UniProt P10635);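 also: CYP2D6 member of a cytochrome P450 panel assay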
Sequence of Cytochrome P450 2D6 (P10635 whole entry): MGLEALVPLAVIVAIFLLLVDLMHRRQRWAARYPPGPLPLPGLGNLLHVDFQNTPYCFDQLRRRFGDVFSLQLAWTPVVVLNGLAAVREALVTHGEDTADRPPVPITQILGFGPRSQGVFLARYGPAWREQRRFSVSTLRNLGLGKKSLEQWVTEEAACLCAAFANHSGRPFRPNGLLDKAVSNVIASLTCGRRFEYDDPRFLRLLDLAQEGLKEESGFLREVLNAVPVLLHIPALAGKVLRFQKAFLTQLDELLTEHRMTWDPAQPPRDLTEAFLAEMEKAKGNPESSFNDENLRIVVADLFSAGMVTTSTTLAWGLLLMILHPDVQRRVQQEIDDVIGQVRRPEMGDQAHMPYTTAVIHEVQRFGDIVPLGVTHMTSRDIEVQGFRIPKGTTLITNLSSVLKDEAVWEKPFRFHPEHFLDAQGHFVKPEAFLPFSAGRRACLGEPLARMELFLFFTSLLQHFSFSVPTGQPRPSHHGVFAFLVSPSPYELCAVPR

Cytochrome P450 2C9 = Cytochrome P450 2C9 (Homo sapiens, UniProt P11712)
Sequence of Cytochrome P450 2C9 (P11712 whole entry): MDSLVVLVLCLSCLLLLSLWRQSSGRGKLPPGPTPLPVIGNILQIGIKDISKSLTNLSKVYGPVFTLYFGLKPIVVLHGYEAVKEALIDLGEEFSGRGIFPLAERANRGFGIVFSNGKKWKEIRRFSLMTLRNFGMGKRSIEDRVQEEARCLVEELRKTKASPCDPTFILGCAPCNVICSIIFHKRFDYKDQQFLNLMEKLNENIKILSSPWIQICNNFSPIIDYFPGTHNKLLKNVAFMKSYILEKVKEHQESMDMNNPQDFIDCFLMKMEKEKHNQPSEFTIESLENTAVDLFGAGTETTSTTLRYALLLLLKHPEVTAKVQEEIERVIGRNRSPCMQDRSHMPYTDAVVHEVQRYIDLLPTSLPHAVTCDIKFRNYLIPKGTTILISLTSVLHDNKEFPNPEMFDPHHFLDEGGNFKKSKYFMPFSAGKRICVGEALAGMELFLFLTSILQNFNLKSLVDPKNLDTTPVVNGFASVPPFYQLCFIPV

[5] = tested on: Streptococcus sp. 'group A'; assay: Streptococcus pyogenes SK(-)GAS viability under kanamycin – luminescence, BacTiterGlo, confirmation, counter-screen for streptokinase expression inhibitor project, dose response (AID 1900); assay type: functional, organism-based
Streptococcus = assay: GAS UMAA2166 growth inhibition – luminescence, BacTiterGlo, counter-screen for streptokinase expression inhibitor project, dose response (AID 1915); assay type: functional, organism-based;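 also: potency for reduction of bacterial viability or growth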
[6] = viability of uninfected HEp-2 cells – cell-based, HTS, cytotoxicity control for RSV inhibitor project, dose response (AID 2410); assay type: functional; settings: human respiratory syncytial virus

Structure (SMILES): CCOC(=O)c1c(-c2ccc(OC)cc2)csc1NC(=O)CNCc1ccco1
IC50 [2]: > 47.1 µM (inactive)
EC50 [3]: > 53 µM (inactive)

Structure (SMILES): Cc1[nH]c2ccccc2c1SCc1nnc(SCc2ccccc2)n1C
IC50 [2]: > 47.1 µM (inactive)
EC50 [3]: > 53 µM (inactive)

Structure (SMILES): Cc1ccc(C(=O)N2CCN(C(=O)CN3CCOCC3)C2)cc1
IC50 [2]: > 47.1 µM (inactive)
EC50 [3]: > 53 µM (inactive)

Structure (SMILES): CCN(C(=O)c1cc2c(O)nc3ccc(C)cc3c2s1)c1ccc(F)cc1
EC50 [1]: > 195 µM (not active)

Structure (SMILES): CCn1c(CNC(C)=O)nnc1SCC(=O)c1ccc(Br)cc1
EC50 [4]: > 260 µM (inactive)

Structure (SMILES): Cc1ccc(/C=C2/NC(=O)N(Cc3ccc(Br)cc3)C2=O)o1
EC50 [4]: > 260 µM (inactive)

Structure (SMILES): O=C(NCCc1cn[nH]c1)C1CCC(=O)N(CCc2cccc(F)c2)C1 (stereo unspecified)
IC50 [2]: > 47.1 µM (inactive)
EC50 [3]: > 53 µM (inactive)

Structure (SMILES): CO[C@H]1C=CO[C@@]2(C)Oc3c(C)c(O)c4c(O)c(c5c(nc6cc(C)ccn65)c4c3C2=O)NC(=O)C(C)=CC=C[C@H](C)[C@H](O)[C@@H](C)[C@@H](O)[C@@H](C)[C@H](OC(C)=O)[C@@H]1C
EC50 [5]: < 0.06 µM (active)
EC50 (Streptococcus): 0.071 µM (active)

Structure (SMILES): O=C(Nc1cccc2ccccc12)N1CC=CCC1
IC50 [2]: < 0.368 µM (active)
EC50 [3]: > 53 µM (inactive)

Structure (SMILES): COc1ccc2nc(NC(=O)C3CCCN(S(=O)(=O)c4cccc5nonc45)C3)sc2c1 (stereo unspecified)
CC50 [6]: > 50 µM (active)

Structure (SMILES): CC(C)CNP(=S)(c1ccccc1)C(C)(C)C (stereo unspecified)
IC50 [2]: > 47.1 µM (inactive)
EC50 [3]: > 53 µM (inactive)

Structure (SMILES): Fc1cccc(F)c1-c1nc(-c2ccncc2)no1
CC50 [6]: 38 µM (active)

Structure (SMILES): O=S(=O)(N1CCCCC1)N1CCN(c2ccc(F)cc2)CC1
EC50 [1]: > 195 µM (not active)

Structure (SMILES): Cc1ccc(S(=O)(=O)NNC(=O)c2cnn(-c3ccc(Cl)cc3)c2C(F)(F)F)cc1
EC50 [4]: > 260 µM (inactive)

Structure (SMILES): NC(=O)CSc1nnc([C@@H](N)Cc2c[nH]c3ccccc23)o1
EC50 [1]: > 195 µM (not active)

Structure (SMILES): Cc1ccc(OCCOCCn2cnc3ccccc3c2=O)cc1C
CC50 [6]: 23.3 µM (active)

Structure (SMILES): Cc1cccc(NC(S)=Nc2ccc(Cl)c(Cl)c2)c1
EC50 [5]: 11.5 µM (active)
EC50 (Streptococcus): > 150 µM (not active)

Structure (SMILES): Cc1ccc(S(=O)(=O)CCN2CCN(c3ccccc3)CC2)cc1
EC50 [4]: > 260 µM (inactive)

Structure (SMILES): Cc1ccc(CN2CC(=O)N3[C@H]4c5cc(Cl)ccc5OC[C@@H]4[C@H](c4ccccc4)[C@]3(C)C2=O)cc1
IC50 [2]: > 47.1 µM (inactive)
EC50 [3]: > 53 µM (inactive)

Structure (SMILES): CCC1=C(OC(=O)N(CC)CC)N2C(=O)O/C(=N\CC3CC3)[C@]2(Cc2ccccc2)[C@H]2C1=CC[C@H]1C(=O)N(c3ccccc3)C(=O)[C@H]12
CC50 [6]: 36.7 µM (active)

Other lines, results leading:

EC50 [1]: > 195 µM (not active)
Structure (SMILES): CCC(N=C(S)NC1CCCCC1)c1ccccc1 (stereo unspecified)

EC50 [4]: > 260 µM (inactive)
Structure (SMILES): O=C1CCN(C(=O)Nc2ccccc2Cl)N1

IC50 [2]: > 47.1 µM (inactive)
EC50 [3]: > 53 µM (inactive)
Structure (SMILES): O=C(CCSc1ccc(Br)cc1)Nc1cccnc1

EC50 [4]: > 260 µM (inactive)
AC50 (Cytochrome P450 2D6): 11.2 µM (inconclusive)
AC50 (Cytochrome P450 2C9): 14.1 µM (inconclusive)
Structure (SMILES): Clc1ccc(CSc2nnc(-c3sccc3-n3cccc3)o2)cc1

EC50 [1]: > 195 µM (not active)
Structure (SMILES): COc1ccc(N2CCN(C(=O)c3ccc(NS(=O)(=O)c4ccccc4)cc3)CC2)cc1

EC50 [1]: > 195 µM (not active)
Structure (SMILES): COc1ccc(NC(S)=Nc2ccc(C)c(S(=O)(=O)N3CCCCC3)c2)cc1

IC50 [2]: > 47.1 µM (inactive)
EC50 [3]: > 53 µM (inactive)
Structure (SMILES): COc1ccccc1N1CCN(C2CCCN(C(=O)c3cc(C4CC4)on3)C2)CC1 (stereo unspecified)

EC50 [4]: 242 µM (active)
Structure (SMILES): CN(CCC1CCCCO1)C(=O)CCc1nnc(CCCCc2ccccc2)o1 (stereo unspecified)

EC50 [4]: > 260 µM (inactive)
Structure (SMILES): COc1ccc(C(=O)Nc2cc(C(F)(F)F)ccc2-n2cnc3ccccc32)cc1

EC50 [1]: 15.2 µM (active)
Structure (SMILES): COc1ccc(C(=O)Nc2ccc(OCc3ccccc3)cc2)cc1[N+](=O)[O-]

EC50 [4]: > 260 µM (inactive)
Structure (SMILES): COc1ccc(NC(=O)CN(C)S(=O)(=O)c2ccc(Br)s2)cc1OC

IC50 [2]: > 47.1 µM (inactive)
EC50 [3]: > 53 µM (inactive)
Structure (SMILES): Cc1c(Cl)c([N+](=O)[O-])nn1CC(=O)NC1CCCCC1
